Test results: patent US20260256740A1, “PHARMACEUTICAL COMPOSITION COMPRISING CYCLOHEX-2-ENYLIDENE / 3,3-DIMETHYLINDOLINE COMPOUNDS; METHODS OF TREATING HUMAN DISEASES; AND METHODS OF INDUCING A CALCIUM SENSITIZING EFFECT IN A SUBJECT” (Curadel Surgical Innovations, Inc., priority 2022, published 2026)

Tested on: plasma membrane of living cells
Assay: NIR cellular microscopy of living cells
Assay type: cell-based
Source text: Without being limited by theory, PanLN and PanLN-forte are believed unlikely to directly bind myofilaments.

CC1(C)C(/C=C/C2=C(Oc3ccc(CCC(=O)O)cc3)C(=C/C=C3/N(CCC[N+](C)(C)C)c4ccccc4C3(C)C)/CCC2)=[N+](CCC[N+](C)(C)C)c2ccccc21 [PanLN, 2-((E)-2-((E)-2-(4-(2-carboxyethyl)phenoxy)-3-((E)-2-(3,3-dimethyl-1-(3-(trimethylammonio)propyl)indolin-2-ylidene)ethylidene)cyclohex-1-enyl)vinyl)-3,3-dimethyl-1-(3-(trimethylammonio)propyl)-3H-indolium]
crossing of the plasma membrane of living cells: does not appear to cross the plasma membrane

CC1(C)C(/C=C/C2=C(c3ccc(CCC(=O)O)cc3)C(=C/C=C3/N(CCC[N+](C)(C)C)c4ccccc4C3(C)C)/CCC2)=[N+](CCC[N+](C)(C)C)c2ccccc21 [PanLN-fort, 2-((E)-2-((E)-2-(4-(2-carboxyethyl)phenyl)-3-((E)-2-(3,3-dimethyl-1-(3-(trimethylammonio)propyl)indolin-2-ylidene)ethylidene)cyclohex-1-enyl)vinyl)-3,3-dimethyl-1-(3-(trimethylammonio)propyl)-3H-indolium]
crossing of the plasma membrane of living cells: does not appear to cross the plasma membrane
